ChEMBL document CHEMBL3862023, “Synthesis of N-aryl and N-arylcarbamoylamino derivatives of 1,3-diazinane-5-carboxamide and their activity against glioblastoma LN-229 cell line” (Bioorg Med Chem, 2016)
In brackets after ≈: the same amount, converted by molar mass.

Key:
[1] = Cytotoxicity against human LN229 cells assessed as concentration required for induction of cell death after 24 hrs by crystal violet staining based light microscopic analysis; type: functional, LN-229
[2] = Solubility of the compound in ethanol; type: physicochemical
[3] = Solubility of the compound in isopropanol; type: physicochemical
[4] = Solubility of the compound in DMSO; type: physicochemical
[5] = Solubility of the compound in chloroform; type: physicochemical
[6] = Solubility of the compound in trifluoroacetic acid; type: physicochemical
[7] = Solubility of the compound in CHCl3/TFA; type: physicochemical
[8] = Solubility of the compound in DMSO/TFA; type: physicochemical
[9] = Solubility of the compound in water; type: physicochemical
[10] = 1-Octanol-water distribution coefficient, log P of compound; type: physicochemical
[11] = Solubility of compound in 1% DMSO at 100 mg/ml; type: physicochemical

SMILES	Activity [1]	solubility [2]	solubility [3]	solubility [4]	solubility [5]	solubility [6]	solubility [7]	solubility [8]	solubility [9]	logP [10]	solubility [11]
O=C(NNC(=O)C1C(=O)NC(=O)N(c2ccccc2)C1=O)Nc1ccc(O)c([N+](=O)[O-])c1 (configuration not stated)	100 µg/mL	Insoluble	Insoluble	Insoluble	Insoluble	Insoluble	Insoluble	Insoluble			
CN1C(=O)C(C(=O)NNC(=O)Nc2ccc(Cl)cc2)C(=O)N(C)C1=O	10 µg/mL	Insoluble	Insoluble	Insoluble	Insoluble	Insoluble	Insoluble	Insoluble			
O=C(NNC(=O)C1C(=O)NC(=O)N(c2ccccc2)C1=O)Nc1ccc([N+](=O)[O-])cc1 (configuration not stated)	100 µg/mL	Insoluble	Insoluble	Insoluble	Insoluble	Insoluble	Insoluble	Insoluble			
CN1C(=O)NC(=O)C(C(=O)NNC(=O)Nc2ccc([N+](=O)[O-])cc2)C1=O (configuration not stated)	100 µg/mL	Insoluble	Insoluble	Insoluble	Insoluble	Insoluble	Insoluble	Insoluble			
CN1C(=O)C(C(=O)NNC(=O)Nc2ccc(F)cc2)C(=O)N(C)C1=O	100 µg/mL	Insoluble	Insoluble	Insoluble	Insoluble	Insoluble	Insoluble	Insoluble			
CN1C(=O)C(C(=O)NNC(=O)Nc2ccc(O)c([N+](=O)[O-])c2)C(=O)N(C)C1=O	10 µg/mL	Insoluble	Insoluble	Insoluble	Insoluble	Insoluble	Insoluble	Insoluble			
CN1C(=O)NC(=O)C(C(=O)NNC(=O)Nc2ccc(Cl)cc2)C1=O (configuration not stated)	100 µg/mL	Insoluble	Insoluble	Insoluble	Insoluble	Insoluble	Insoluble	Insoluble			
N#Cc1ccc(NC(=O)NNC(=O)C2C(=O)NC(=O)N(c3ccccc3)C2=O)cc1 (configuration not stated)	100 µg/mL	Insoluble	Insoluble	Insoluble	Insoluble	Insoluble	Insoluble	Insoluble			
CN1C(=O)C(C(=O)NNC(=O)Nc2ccc(C#N)cc2)C(=O)N(C)C1=O	100 µg/mL	Insoluble	Insoluble	Insoluble	Insoluble	Insoluble	Insoluble	Insoluble			
CN1C(=O)C(C(=O)NNC(=O)Nc2ccc([N+](=O)[O-])cc2)C(=O)N(C)C1=O	10 µg/mL	Insoluble	Insoluble	Insoluble	Insoluble	Insoluble	Insoluble	Insoluble			
CN1C(=O)C(C(=O)NNC(=O)Nc2ccc(O)cc2)C(=O)N(C)C1=O	10 µg/mL	Insoluble	Insoluble	Insoluble	Insoluble	Insoluble	Insoluble	Insoluble			
O=C1NC(=O)C(C(=O)NNC(=O)Nc2ccc(Cl)cc2)C(=O)N1	100 µg/mL	Insoluble	Insoluble	Insoluble	Insoluble	Soluble	Soluble	Soluble			
CN1C(=O)C(C(=O)Nc2ccccc2)C(=O)N(C)C1=O	100 µg/mL								140 µg/mL (≈ 509 µM)	0.4	Insoluble
O=C1NC(=O)C(C(=O)NNC(=O)Nc2ccc(O)c([N+](=O)[O-])c2)C(=O)N1		Insoluble	Insoluble	Insoluble	Insoluble	Soluble	Soluble	Soluble			
CN1C(=O)NC(=O)C(C(=O)NNC(=O)Nc2cccc(O)c2)C1=O (configuration not stated)		Insoluble	Insoluble	Insoluble	Insoluble	Insoluble	Insoluble	Insoluble			
CN1C(=O)C(C(=O)NNC(=O)Nc2ccc(Cl)c(Cl)c2)C(=O)N(C)C1=O	1 µg/mL	Insoluble	Insoluble	Insoluble	Insoluble	Insoluble	Insoluble	Insoluble	500 µg/mL (≈ 1240 µM)	0.73	Insoluble
CN1C(=O)NC(=O)C(C(=O)NNC(=O)Nc2ccc(F)cc2)C1=O (configuration not stated)		Insoluble	Insoluble	Insoluble	Insoluble	Insoluble	Insoluble	Insoluble			
O=C(NNC(=O)C1C(=O)NC(=O)N(c2ccccc2)C1=O)Nc1ccc(F)cc1 (configuration not stated)		Insoluble	Insoluble	Insoluble	Insoluble	Insoluble	Insoluble	Insoluble			
CN1C(=O)NC(=O)C(C(=O)NNC(=O)Nc2ccccc2)C1=O (configuration not stated)		Insoluble	Insoluble	Insoluble	Insoluble	Insoluble	Insoluble	Insoluble			
O=C1NC(=O)C(C(=O)NNC(=O)Nc2ccc(F)cc2)C(=O)N1		Insoluble	Insoluble	Insoluble	Insoluble	Soluble	Soluble	Soluble			
CN1C(=O)NC(=O)C(C(=O)NNC(=O)Nc2ccc(C#N)cc2)C1=O (configuration not stated)		Insoluble	Insoluble	Insoluble	Insoluble	Insoluble	Insoluble	Insoluble			
CN1C(=O)NC(=O)C(C(=O)NNC(=O)Nc2ccc(O)cc2)C1=O (configuration not stated)		Insoluble	Insoluble	Insoluble	Insoluble	Insoluble	Insoluble	Insoluble	70 µg/mL (≈ 209 µM)	1.08	Insoluble
CN1C(=O)NC(=O)C(C(=O)NNC(=O)Nc2ccc(O)c([N+](=O)[O-])c2)C1=O (configuration not stated)		Insoluble	Insoluble	Insoluble	Insoluble	Insoluble	Insoluble	Insoluble			
O=C(NNC(=O)C1C(=O)NC(=O)N(c2ccccc2)C1=O)Nc1ccc(Cl)c(Cl)c1 (configuration not stated)	100 µg/mL	Insoluble	Insoluble	Insoluble	Insoluble	Insoluble	Insoluble	Insoluble			
CN1C(=O)C(C(=O)Nc2ccc(Cl)cc2)C(=O)N(C)C1=O	10 µg/mL								130 µg/mL (≈ 420 µM)	1.18	Insoluble
O=C1NC(=O)C(C(=O)NNC(=O)Nc2ccccc2)C(=O)N1	100 µg/mL	Insoluble	Insoluble	Insoluble	Insoluble	Soluble	Soluble	Soluble			
O=C(NNC(=O)C1C(=O)NC(=O)N(c2ccccc2)C1=O)Nc1ccc(O)cc1 (configuration not stated)		Insoluble	Insoluble	Insoluble	Insoluble	Insoluble	Insoluble	Insoluble			
O=C(NNC(=O)C1C(=O)NC(=O)N(c2ccccc2)C1=O)Nc1ccc(Cl)cc1 (configuration not stated)	100 µg/mL	Insoluble	Insoluble	Insoluble	Insoluble	Insoluble	Insoluble	Insoluble			
